The values below are quoted from earlier work in patent US11123368B2, “Immunosuppressive blood cells and methods of producing the same” (Universitatsklinikum Heidelberg, priority 2008, dated 2021).

The test system of this series is multiple sclerosis. The following applies: clinical trials.

Turning to glatiramer acetate, the “relapse rate of MS” value is on record as “significantly reduced”. The progression of disability entry (MS) was “slowed progression of disability”.
